Experimental data as given in patent publication US20250382298A1, “NITROGEN-CONTAINING COMPOUND AND USE THEREOF” (SUZHOU GENHOUSE BIO CO., LTD., priority 2022, published 2025).
pEC50, pIC50: −log10 of the molar value. Like-named read-outs stand apart in the source and are kept apart here.

What was measured:
OVCAR3 cells [1] = assay: Detection of OVCAR3 cell proliferation activity by CTG method; type: cell-based; conditions: Homo sapiens, OVCAR-3, 168 h, CellTiter-Glo, 7 days
Description: (§1) This assay can be used to examine the potency of compounds in inhibiting the proliferation of tumor cells (OVCAR3, HT-29, BT-549, HCT-116). A lower IC50 value indicates high potency of the compound as a KIF18A inhibitor in the following assay setup,
1640 medium; fetal bovine serum; penicillin/streptomycin antibiotics purchased from Wisent; CellTiter-Glo (chemiluminescence detection reagent for cell viability) reagent purchased from Promega; OVCAR3 cell line purchased from Nanjing Cobioer Biosciences Co., Ltd.; Nivo multimode microplate reader (PerkinElmer),
OVCAR3 cells were seeded into a white 96-well plate, with 80 μL of cell suspension containing 2000 OVCAR3 cells added to each well. The cell plate was incubated in a CO2 incubator overnight.
A test compound was 5-fold diluted to the 8th concentration (i.e., from 2 mM to […]) using a multichannel pipette, with duplicate wells set up. To an intermediate plate was added 78 μL of medium, and the serially diluted compound was transferred to the corresponding wells of the intermediate plate at 2 μL/well. The mixture was mixed well and then transferred to the cell plate at 20 μL/well. The concentration of the compound transferred to the cell plate ranged from 10 μM to 0.026 nM. The cell plate was incubated in a CO2 incubator for 7 days. Another cell plate was prepared and read for signal values on the day of compound addition, and these values were used as the maximum values (the Max value in the equation below) in data analysis. To this cell plate was added the chemiluminescence detection reagent for cell viability at 25 μL/well, and the luminescence signals were stabilized by incubation at room temperature for 10 min. Readings were taken using the multimode microplate reader.
To the cell plate was added the chemiluminescence detection reagent for cell viability at 25 μL/well, and the luminescence signals were stabilized by incubation at room temperature for 10 mm. Readings were taken using the multimode microplate reader, […]

HCT-116 cells [2] = assay: Mitotic index analysis, pH3 expression in HCT-116 cells; type: cell-based; conditions: 24 h treatment
Protocol: (§2) HCT-116 and HT-29 cells at the logarithmic growth phase were taken, digested with a cell lysis buffer (trypsin), centrifuged, counted, and seeded into a 96-well plate at an appropriate cell density (20000 cells/well), with 100 μL per well. The surrounding wells were filled with an appropriate amount of PBS to prevent water evaporation. The next day, the cells were treated with the compounds at different concentrations (with a starting concentration of 10 μM, 3-fold diluted to obtain 9 concentration gradients). After 24 h, the medium was aspirated, and the cells were washed twice with 100 μL of PBS. The cells were then fixed with 4% paraformaldehyde and incubated at room temperature for 15 min. The fixative solution was discarded, and the cells were washed with PBS. Then, 150 μL of specialized blocking solution (containing 1% Triton-100) was added to each well for blocking at room temperature for 2 h, and the plate was washed with PBS to remove excess blocking solution. Anti-phistone H3 (pH3) was diluted at a ratio of 1:1000 with a blocking solution containing 0.033% Triton-100, and a blank control group was set up. Then, incubation was performed at 4° C. overnight. The next day, the plate was washed twice with 1×PBST. Anti-rabbit-IgG (H+L) (CST) and DRAQ5 (Thermofisher) were each diluted at an appropriate ratio with a blocking solution containing 0.033% Triton-100 (secondary antibody: 1:2000; DRAQ5: 1:10000). Then, incubation was performed at room temperature for 2 h. The plate was washed twice with 1×PBST and once with PBS. Fluorescence signals at 700 nm and 800 nm were detected using a Li—COR Odyssey two-color near-infrared laser imager. Calculation was performed as follows: pH3 expression (%)=(Cmpd dose/DMSO control)×100. Cmpd dose is the value of the drug treatment group, and DMSO control is the value of the DMSO control group. The EC50 values were determined by fitting using the GraphPad Prism 7.0 software.

HCT-116 cells [3] = assay: Detection of cell proliferation activity by CCK8 method (HCT-116); type: cell-based; conditions: CCK8, 96 h
Description: as §1
(§3) McCoy's 5A medium purchased from Sangon Biotech; CCK8 kit purchased from Beyotime; OVCAR3, HT-29, HCT-116, and BT-549 cells purchased from Shanghai Fuheng Biotechnology Co., Ltd.; multimode microplate reader (Thermo).
(§4) Cells at the logarithmic growth phase were taken, digested with a cell lysis buffer (trypsin), centrifuged, counted, and seeded into a 96-well plate at an appropriate cell density (BT549: 1500 cells/well in 1640 medium. HT-29 and HCT-116: 2000 cells/well in McCoy's 5A medium), with 180 μL per well, for a total of 60 wells. The surrounding wells were filled with an equal amount of PBS to prevent water evaporation from the edge wells. The next day after cell plating, the test compounds at different concentration gradients (with an initial final concentration of 10 μM, diluted in a 1:5 gradient to obtain 9 concentration gradients) were added to the wells. Three replicate wells were set up for each concentration point, and a corresponding DMSO negative control group was also set up. Detection: After 96 h of drug treatment, the test cell culture plate was removed from the incubator. All the liquid in the 96-well plate was aspirated, and 100 μL of medium containing 10% CCK8 solution was added to each well. The plate was then incubated at 37° C. for 2 h (the OD450 of the DMSO group reached 1.5 or more), and the absorbance at 450 nm was measured using a microplate reader
(§5) After the background value was subtracted from the measurement for each well, the inhibition rate was calculated. Inhibition Rate (%)=(1−Sample/Vehicle)×100. Sample is the luminescence value of the drug treatment group, and Vehicle is the luminescence value of the DMSO control group. A sigmoidal dose-survival rate curve was plotted using a non-linear regression model in the GraphPad Prism 7.0 software, and the IC50 values were calculated.

HT-29 cells [4] = assay: Detection of cell proliferation activity by CCK8 method (HT-29); type: cell-based, human; conditions: Homo sapiens, CCK8, 96 h
Description: as §1, §3, §4, §5

BT-549 cells = assay: Detection of cell proliferation activity by CCK8 method (BT-549); type: cell-based; conditions: CCK8, 96 h
Description: as §1, §3, §4, §5

HT-29 cells [5] = assay: Mitotic index analysis, pH3 expression in HT-29 cells; type: cell-based, human; conditions: Homo sapiens, 24 h treatment
Protocol: as §2

OVCAR3 cells [6] = assay: Detection of cell proliferation activity by CCK8 method (OVCAR3); type: cell-based
Description: as §1, §3, §4, §5

[7] = Pharmacokinetic test in mice; type: in vivo; conditions: BALB/c mice; for AUC / Cmax / half-life: mouse, plasma; for half-life: read-out: t½ (converted)
Protocol: In this example, the pharmacokinetic behavior of the compounds after intravenous injection (IV) and intragastric (PO) administration in BALB/c mice was tested.
On the day of administration, mice were weighed for actual body weight and the administration volume was calculated. Each compound was tested in two groups with 9 mice in each group; one group was subjected to administration by single intravenous injection, and the other group of mice was subjected to single intragastric administration. Whole blood samples were collected via the orbit at prescribed time points (0.25 h, 0.5 h, 1 h, 2 h, 4 h, 8 h, and 24 h after administration). After blood sample collection, the samples were immediately transferred to labeled commercial sample tubes containing K2-EDTA (0.85-1.15 mg), followed by centrifugation (3200×g, 4° C., 10 min) and plasma collection. The plasma was transferred to a pre-cooled centrifuge tube, frozen in dry ice, and then stored in an ultra-low temperature freezer at −60° C. or lower until the LC-MS/MS analysis.
Plasma concentrations were determined by the LC-MS/MS method. Plasma drug concentration data for the compounds were processed using a non-compartmental model in the WinNonlin Version 6.3 (Pharsight, Mountain View, CA) pharmacokinetic software. The relevant pharmacokinetic parameters were calculated by a linear-log trapezoidal method.

KIF18A = KIF18A (Homo sapiens (Human), UniProt Q8NI77); assay: KIF18A enzymatic activity inhibition, ADP-Glo kit; type: biochemical; conditions: 4 nM KIF18A, 30 μM ATP
Protocol: In this experiment, an ADP-Glo kit was used to detect the inhibitory activity of the compounds against KIF18A. Each compound was prepared into a 10 mM stock solution with DMSO, which was then diluted at 1:5 to obtain 9 gradients with the initial final concentration set at 10 μM. Meanwhile, a control group and a blank group were also set up. The reaction buffer consisted of 15 mM Tris (pH 7.5), 10 mM MgCl2, and 0.01% Pluronic F-68. 4 nM KIF18A (1467) and the test compound were added to a 384-well plate and incubated at 37° C. for 20 mm. Then, 30 μM ATP was added to initiate the enzymatic reaction, and the plate was incubated at room temperature for 15 min. Finally, the ADP-Glo reagent was added to detect the luminescence intensity, where the luminescence intensity is directly proportional to the ADP content. Inhibition rate (%)=[…]. Sample signal is the value of the compound group, and DMSO signal is the value of the DMSO control group. Then, the inhibition rate at each concentration was calculated, and the IC50 was determined by fitting using the GraphPadPrism 7.0 software.

[8] = Homo sapiens, OVCAR-3, CCK8, 96 h

Chain of KIF18A (Q8NI77 1-467): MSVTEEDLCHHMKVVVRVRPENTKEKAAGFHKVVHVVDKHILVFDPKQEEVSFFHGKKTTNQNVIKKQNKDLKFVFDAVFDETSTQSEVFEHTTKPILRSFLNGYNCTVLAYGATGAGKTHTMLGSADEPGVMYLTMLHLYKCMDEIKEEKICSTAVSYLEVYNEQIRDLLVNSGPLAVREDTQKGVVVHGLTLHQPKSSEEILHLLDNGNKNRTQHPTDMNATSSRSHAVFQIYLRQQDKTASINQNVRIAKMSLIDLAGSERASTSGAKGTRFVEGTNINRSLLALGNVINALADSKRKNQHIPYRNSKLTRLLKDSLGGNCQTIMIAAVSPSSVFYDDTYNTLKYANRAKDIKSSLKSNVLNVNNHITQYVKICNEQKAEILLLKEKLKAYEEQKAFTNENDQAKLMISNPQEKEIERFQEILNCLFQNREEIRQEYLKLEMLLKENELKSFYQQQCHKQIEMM

Structure (SMILES) | pIC50 (OVCAR3 cells [1]) | pEC50 (HCT-116 cells [2]; Homo sapiens) | pIC50 (HCT-116 cells [3]; Homo sapiens) | pIC50 (HT-29 cells [4]) | pIC50 (BT-549 cells; Homo sapiens) | pEC50 (HT-29 cells [5]) | pIC50 (OVCAR3 cells [6]; [8]) | other results
O=C(Nc1csc(C2CCC(F)(F)CC2)n1)c1ccc(NS(=O)(=O)CCO)cc1N1CCC2(CC1)CC2 [Compound 1] | 6.78 | – | – | – | – | – | – | –
O=C(Nc1nc(N2CCC(F)(F)CC2)nc2ccccc12)c1ccc(NS(=O)(=O)CCO)cc1N1CCC2(CC1)CC2 [Compound 2] | 5.28 | – | – | – | – | – | – | –
Cc1cc(NC(=O)c2ccc(NS(=O)(=O)CCO)cc2N2CC3CC(C3)C2)nc(N2CCC(F)(F)CC2)n1 [Compound 4] | 6.73 | – | – | – | – | – | – | –
Cc1cc2nc(NC(=O)c3ccc(NS(=O)(=O)CCO)cc3N3CCC4(CC3)CC4)nc(N3CCC(F)(F)CC3)c2s1 [Compound 7] | 5.70 | – | – | – | – | – | – | –
O=C(Nc1cc2ccccc2c(N2CCC(F)(F)CC2)n1)c1ccc(NS(=O)(=O)CCO)cc1N1CC2CCC(C2)C1 [Compound 9] | 6.91 | – | – | – | – | – | – | –
O=C(Nc1cc2nccn2c(N2CCC(F)(F)CC2)n1)c1ccc(NS(=O)(=O)CCO)cc1N1CCC2(CC1)CC2 [Compound 16] | 7.28 | < 5.00 | < 5.00 | 6.47 | 6.72 | 7.03 | – | –
O=C(Nc1cn2ccnc2c(N2CC3CCC(C3)C2)n1)c1ccc(NS(=O)(=O)CCO)cc1N1CCC2(CC1)CC2 [Compound 30] | 7.19 | < 5.00 | < 5.00 | 7.13 | 6.98 | 7.32 | 7.52 | –
O=C(Nc1cn2ccnc2c(N2CCC3(CC2)CC3)n1)c1ccc(NS(=O)(=O)CCO)cc1N1CCC2(CC1)CC2 [Compound 31] | 7.17 | < 5.00 | < 5.00 | 7.03 | 6.96 | 7.19 | 7.38 | –
CS(=O)(=O)Nc1ccc(C(=O)Nc2cc3cccnc3c(N3CCC(F)(F)CC3)n2)c(N2CCC3(CC2)CC3)c1 [Compound 32] | 7.52 | < 5.00 | < 5.00 | 7.34 | 7.34 | 7.21 | 7.65 | –
CS(=O)(=O)Nc1ccc(C(=O)Nc2cc3cccnc3c(N3CCC(F)(F)CC3)n2)c(N2CC3CCC(C3)C2)c1 [Compound 33] | 7.12 | < 5.00 | < 5.00 | 7.07 | 6.93 | 7.23 | 7.27 | F ([7]; PO @30mpk): 108%; AUC ([7]; 30 mg/kg, PO @30mpk): 126 µM·h; Cmax ([7]; 30 mg/kg, PO @30mpk): 6.31 µM; half-life ([7]; 30 mg/kg, PO @30mpk): 134 h
O=C(Nc1cn2ccnc2c(N2CCC(F)(F)CC2)n1)c1ncc(NS(=O)(=O)CCO)cc1N1CCC2(CC1)CC2 [Compound 37] | – | – | – | – | – | – | – | pIC50 (KIF18A): 7.95; pEC50 (HCT-116 cells [2]): < 5.00; pIC50 (OVCAR3 cells [6]; CCK8, 96 h): 6.63; pIC50 (HCT-116 cells [3]): < 5.00; pIC50 (BT-549 cells): 6.21
O=C(Nc1cn2c(F)cnc2c(N2CCC(F)(F)CC2)n1)c1ccc(NS(=O)(=O)CCO)cc1N1CC2CCC(C2)C1 [Compound 51] | – | < 5.00 | < 5.00 | 7.45 | 7.26 | 7.86 | 7.58 | F ([7]; PO @30mpk): 67%; AUC ([7]; 30 mg/kg, PO @30mpk): 272 µM·h; Cmax ([7]; 30 mg/kg, PO @30mpk): 14.2 µM; half-life ([7]; 30 mg/kg, PO @30mpk): 62.3 h
CS(=O)(=O)Nc1ccc(C(=O)Nc2cn3ncnc3c(N3CCC(F)(F)CC3)n2)c(N2CC3CCC(C3)C2)c1 [Compound 53] | – | < 5.00 | < 5.00 | 7.35 | 6.77 | 7.57 | 7.48 | F ([7]; PO @30mpk): 16%; AUC ([7]; 30 mg/kg, PO @30mpk): 78.3 µM·h; Cmax ([7]; 30 mg/kg, PO @30mpk): 4.56 µM; half-life ([7]; 30 mg/kg, PO @30mpk): 13 h
Cn1ncc2cc(NC(=O)c3ccc(NS(=O)(=O)CCO)cc3N3CC4CCC(C4)C3)nc(N3CCC(F)(F)CC3)c21 [Compound 55] | – | < 5.00 | < 5.00 | 7.90 | 7.26 | 8.34 | 8.17 | F ([7]; PO @30mpk): 109%; AUC ([7]; 30 mg/kg, PO @30mpk): 380 µM·h; Cmax ([7]; 30 mg/kg, PO @30mpk): 25.8 µM; half-life ([7]; 30 mg/kg, PO @30mpk): 7.8 h
CS(=O)(=O)Nc1ccc(C(=O)Nc2cc3nccnc3c(N3CCC(F)(F)CC3)n2)c(N2CC3CCC(C3)C2)c1 [Compound 72] | – | < 5.00 | < 5.00 | 6.85 | 6.48 | 7.14 | 7.18 | F ([7]; PO @5mpk): 175%; AUC ([7]; 5 mg/kg, PO @5mpk): 66.3 µM·h; Cmax ([7]; 5 mg/kg, PO @5mpk): 5.34 µM; half-life ([7]; 5 mg/kg, PO @5mpk): 6 h
